Assay results from patent publication US20160264593A1 (priority 2013, published 2016).
Where two headings read alike, the source gives them in different places.

Experiment: Pharmacokinetic study of 153 (and metabolite endothal) in SD rats, iv and po; plasma, liver, brain
Assay type: in vivo
Settings: for MRT last: read-out: MRT (0-t); for half-life: read-out: T1/2 (converted); for Tmax: read-out: Tmax
Description: The blood, liver and brain tissue samples were collected at predetermined times from rats. […] Compound were diluted shortly before use in 4% sodium bicarbonate for sterile injection (this is the standard pediatric solution of NaHCO3 with a pH of about 8.5).
Compound 153 was freshly prepared by diluting the drugs shortly before use in 4% sodium bicarbonate for sterile injection (this is the standard pediatric solution of NaHCO3 with a pH of about 8.5). The final concentrations of 153 solutions were 0.25 mg/mL. The 153 solutions were administered via iv or po route at dose volume of 5 ml/kg according to the latest body weight. Compound 157 was freshly prepared by diluting the drugs shortly before use in 4% sodium bicarbonate for sterile injection (this is the standard pediatric solution of NaHCO3 with a pH of about 8.5). The final concentrations of […] solutions were 0.3 mg/mL. The 157 solutions were administered via iv or po route at dose volume of 5 ml/kg according to the latest body weight.
Twelve (12) female SD rats per group were dosed by iv with 153 or 157. The rats were fasted overnight prior to dosing, with free access to water. Foods were withheld for 2 hours post-dose. Blood, liver and brain tissue samples in two animals each group were collected at each time point, within 10% of the scheduled time for each time point. Two extra animals were used for analytic method development.
Blood (>0.3 mL) were collected via aorta abdominalis in anaesthetic animals into tubes containing heparin at 15 min, 1, 2, 6, 10 and 24 hours after iv administration. Liver and brain tissues were collected immediately after animal death. The liver and brain tissues were excised and rinsed with cold saline to avoid blood residual. Upon collection, each sample was placed on ice and the blood samples were subsequently centrifuged (4° C., 11000 rpm, 5 min) to separate plasma. The obtained plasma, liver and brain tissue samples were stored at −70° C. until LC-MS/MS analysis.
Two (2) female SD rats per group were dosed by po with 153 or 157. The rats were fasted overnight prior to dosing, with free access to water. Foods were withheld for 2 hours post-dose. Blood samples (>0.3 mL) were collected via aorta abdominalis in anaesthetic animals into tubes containing heparin at 30 min, 1, 2, 6, 10 and 24 hours after po administration.
To each sample, 20 μL IS-D (for blank samples, 20 μL acetonitrile:water (1:1) was added) and 300 μl acetonitrile was added. The sample mixture was vortexed for approximately 3 min. After centrifugation at 10000 rpm for 5 min at 4° C., 100 μL of the upper layer was transferred to a new tube and added 200 μL 0.4% formic acid in water (pH 6.0). The mixture was vortexed for approximately 3 min before injected onto the LC/MS/MS system for analysis.
On the day of the assay, the frozen liver and brain samples were thawed unassisted at room temperature. An about 200 mg weighed sample of each thawed tissue was placed into a plastic tube with water (0.6 mL) to facilitate homogenization. Tissue processing was conducted using a homogenizer for approximately 1 min, 200 μl homogenate was transferred into a fresh Eppendorf tube. To each tube, 50 μL IS-D was added and mixed. Then 600 μl acetonitrile was added and the sample mixture was vortexed for approximately 3 min. After centrifugation at 10000 rpm for 5 min at 4° C., 400 μL of the upper layer was transferred to a new tube and evaporate the supernatant to dryness at 35° C. Reconstitute the residue with 200 μL of 0.4% formic acid in water (pH6.0), and vortex for 3 min, submit for LC-MS/MS analysis.
Frozen unknown plasma samples were completely thawed at room temperature and vortexed thoroughly. With a pipette, 50 μL of plasma was transferred into a 2.0 mL Eppendorf tube. 50 μL of 0.1N HCl and 800 μL ethyl acetate were added into each sample. The sample mixture was vortexed for approximately 3 min.

[1] = female, SD, rat, in vivo, iv, 1.25 mg/kg, iv 1.25 mg/kg, Mean, read-out: 153 liver concentration
[2] = female, SD, rat, in vivo, iv, 1.25 mg/kg, iv 1.25 mg/kg, Mean, read-out: 153 plasma concentration
[3] = female, SD, rat, in vivo, iv, 1.25 mg/kg, iv 1.25 mg/kg, Rat 1, read-out: 153 brain concentration
[4] = female, SD, rat, in vivo, iv, 1.25 mg/kg, iv 1.25 mg/kg, Rat 1, read-out: 153 liver concentration
[5] = female, SD, rat, in vivo, iv, 1.25 mg/kg, iv 1.25 mg/kg, Rat 1, read-out: 153 plasma concentration
[6] = female, SD, rat, in vivo, iv, 1.25 mg/kg, iv 1.25 mg/kg, Rat 2, read-out: 153 brain concentration
[7] = female, SD, rat, in vivo, iv, 1.25 mg/kg, iv 1.25 mg/kg, Rat 2, read-out: 153 liver concentration
[8] = female, SD, rat, in vivo, iv, 1.25 mg/kg, iv 1.25 mg/kg, Rat 2, read-out: 153 plasma concentration
[9] = female, SD, rat, in vivo, po, 1.25 mg/kg, 153 in plasma, PO 1.25 mg/kg, Mean
[10] = female, SD, rat, in vivo, po, 1.25 mg/kg, 153 in plasma, PO 1.25 mg/kg, rat 1
[11] = female, SD, rat, in vivo, po, 1.25 mg/kg, 153 in plasma, PO 1.25 mg/kg, rat 2
[12] = female, SD, rat, in vivo, po, 1.25 mg/kg, PO per title, 1.25 mg/kg, Mean, read-out: 153 liver concentration
[13] = female, SD, rat, in vivo, po, 1.25 mg/kg, PO per title, 1.25 mg/kg, Rat 2, read-out: 153 liver concentration
[14] = female, Sprague-Dawley (SD), rat, in vivo, iv, 1.25 mg/kg, Brain, 1.25 mg/kg IV, Mean
[15] = female, Sprague-Dawley (SD), rat, in vivo, iv, 1.25 mg/kg, Brain, 1.25 mg/kg IV, rat 1
[16] = female, Sprague-Dawley (SD), rat, in vivo, iv, 1.25 mg/kg, Brain, 1.25 mg/kg IV, rat 2
[17] = female, Sprague-Dawley (SD), rat, in vivo, iv, 1.25 mg/kg, Liver, 1.25 mg/kg IV, Mean
[18] = female, Sprague-Dawley, rat, in vivo, po, 1.25 mg/kg, PO per title, 1.25 mg/kg, Rat 1, read-out: 153 liver concentration

CCCOC(=O)C1C2CCC(O2)C1C(=O)N1CCN(C)CC1 (stereo not shown) [Compound 153, 3-(4-Methylpiperazine-1-carbonyl)-7-oxa-bicyclo[2,2,1]heptane-2-carboxylic acid propyl ester]
concentration at 1 h [1]: 126 ng/g | concentration at 1 h [2]: 0.0547 µg/mL | concentration at 1 h [3]: 13.9 ng/g | concentration at 1 h [4]: 131 ng/g | concentration at 1 h [5]: 0.058 µg/mL | concentration at 1 h [6]: 14.3 ng/g | concentration at 1 h [7]: 121 ng/g | concentration at 1 h [8]: 0.0514 µg/mL | concentration at 2 h (female, SD, rat, in vivo, iv, 1.25 mg/kg, iv 1.25 mg/kg, Mean, read-out: 153 brain concentration): 4.4 ng/g | concentration at 2 h [1]: 41.6 ng/g | concentration at 2 h [2]: 0.0139 µg/mL | concentration at 2 h [3]: 4.05 ng/g | concentration at 2 h [4]: 42 ng/g | concentration at 2 h [5]: 0.0148 µg/mL | concentration at 2 h [6]: 4.75 ng/g | concentration at 2 h [7]: 41.2 ng/g | concentration at 2 h [8]: 0.013 µg/mL | concentration at 6 h (female, SD, rat, in vivo, iv, 1.25 mg/kg, iv 1.25 mg/kg, 6 hr, Mean): 0.00103 µg/mL | concentration at 6 h (female, SD, rat, in vivo, iv, 1.25 mg/kg, iv 1.25 mg/kg, 6 hr, Rat 1): 0.00104 µg/mL | concentration at 6 h (female, SD, rat, in vivo, iv, 1.25 mg/kg, iv 1.25 mg/kg, 6 hr, Rat 2): 0.00102 µg/mL | concentration at 10 h (female, SD, rat, in vivo, iv, 1.25 mg/kg, iv 1.25 mg/kg, 10 hr, Rat 2, abnormal, not included in the calculation): 0.00942 µg/mL | MRT last [9]: 60.6 min | half-life [9]: 20.6 min | AUC(0-inf) [10]: 0.163 µg·h/mL | AUC (female, SD, rat, in vivo, po, 1.25 mg/kg, 153 in plasma, PO 1.25 mg/kg, rat 1, read-out: AUC): 0.163 µg·h/mL | Cmax (female, SD, rat, in vivo, po, 1.25 mg/kg, 153 in plasma, PO 1.25 mg/kg, rat 1, read-out: Cmax): 0.249 µg/mL | MRT last [10]: 59.2 min | half-life [10]: 19.8 min | AUC(0-inf) [11]: 0.164 µg·h/mL | AUC (female, SD, rat, in vivo, po, 1.25 mg/kg, 153 in plasma, PO 1.25 mg/kg, rat 2, read-out: AUC): 0.164 µg·h/mL | Cmax (female, SD, rat, in vivo, po, 1.25 mg/kg, 153 in plasma, PO 1.25 mg/kg, rat 2, read-out: Cmax): 0.229 µg/mL | MRT last [11]: 62.4 min | half-life [11]: 21.3 min | AUC (female, SD, rat, in vivo, po, 1.25 mg/kg, 153 po 1.25 mg/kg, read-out: AUC of 153 in plasma): 0.164 µg·h/mL | Cmax (female, SD, rat, in vivo, po, 1.25 mg/kg, 153 po 1.25 mg/kg, read-out: Cmax of 153 in plasma): 0.239 µg/mL | concentration at 0.25 h [12]: 762 ng/g | concentration at 0.25 h [13]: 652 ng/g | concentration at 1 h [12]: 126 ng/g | concentration at 1 h (female, SD, rat, in vivo, po, 1.25 mg/kg, PO per title, 1.25 mg/kg, Rat 1, read-out: 153 liver concentration): 131 ng/g | concentration at 1 h [13]: 121 ng/g | AUC(0-t) (female, SD, rat, in vivo, 153 iv 1.25 mg/kg, read-out: AUClast of 153 in plasma): 0.295 µg·h/mL | bioavailability (female, SD, rat, in vivo, 153 po vs iv 1.25 mg/kg, read-out: BA (bioavailability) of 153): 55.4% | Cmax (female, Sprague-Dawley (SD), rat, in vivo, iv, 1.25 mg/kg, Brain, 1.25 mg/kg IV, Mean, read-out: Cmax): 42.7 ng/g | MRT last [14]: 58.3 min | half-life [14]: 35.8 min | Cmax (female, Sprague-Dawley (SD), rat, in vivo, iv, 1.25 mg/kg, Brain, 1.25 mg/kg IV, rat 1, read-out: Cmax): 45 ng/g | MRT last [15]: 56 min | half-life [15]: 33.7 min | Cmax (female, Sprague-Dawley (SD), rat, in vivo, iv, 1.25 mg/kg, Brain, 1.25 mg/kg IV, rat 2, read-out: Cmax): 40.3 ng/g | MRT last [16]: 60.6 min | half-life [16]: 37.7 min | Cmax (female, Sprague-Dawley (SD), rat, in vivo, iv, 1.25 mg/kg, Liver, 1.25 mg/kg IV, Mean, read-out: Cmax): 762 ng/g | MRT last [17]: 47.1 min | half-life [17]: 37.6 min | half-life (female, Sprague-Dawley (SD), rat, in vivo, iv, 1.25 mg/kg, Liver, 1.25 mg/kg IV, rat 2): 38.6 min | AUC(0-inf) (female, Sprague-Dawley (SD), rat, in vivo, po, 1.25 mg/kg, 153 in plasma, PO 1.25 mg/kg, Mean): 0.164 µg·h/mL | AUC (female, Sprague-Dawley (SD), rat, in vivo, po, 1.25 mg/kg, 153 in plasma, PO 1.25 mg/kg, Mean, read-out: AUC): 0.164 µg·h/mL | Cmax (female, Sprague-Dawley (SD), rat, in vivo, po, 1.25 mg/kg, 153 in plasma, PO 1.25 mg/kg, Mean, read-out: Cmax): 0.239 µg/mL | Tmax (female, Sprague-Dawley (SD), rat, in vivo, 153 in plasma, PO 1.25 mg/kg, Mean): 30 min | Tmax (female, Sprague-Dawley (SD), rat, in vivo, Liver, 1.25 mg/kg IV, Mean): 15 min | concentration at 0.25 h [18]: 872 ng/g | concentration at 2 h (female, Sprague-Dawley, rat, in vivo, po, 1.25 mg/kg, PO per title, 1.25 mg/kg, Mean, read-out: 153 liver concentration): 41.6 ng/g | concentration at 2 h [18]: 42 ng/g | concentration at 2 h (female, Sprague-Dawley, rat, in vivo, po, 1.25 mg/kg, PO per title, 1.25 mg/kg, Rat 2, read-out: 153 liver concentration): 41.2 ng/g | 153 liver concentration (iv 1.25 mg/kg, 6 hr, Rat 1): BLQ | 153 liver concentration (iv 1.25 mg/kg, 6 hr, Rat 2): BLQ | 153 liver concentration (iv 1.25 mg/kg, 10 hr, Rat 1): BLQ
